Experimental data: patent US10457662B2, “Substituted amides for treating and preventing cancer” (The Regents of the University of Michigan, priority 2015, dated 2019)
Where two headings read alike, the source gives them in different places.

Tests used:
Hep3B = assay: MTT assay, Hep3B; type: cell-based; details: Homo sapiens, HCC cell line
Experimental: (§1) In order to understand its potential selectivity for different types of cancer and choose the best model for further characterization, QN523 was tested in a panel of 12 cancer cell lines with various genetic and pathological backgrounds (Table 2). […] Because of remarkable potency of QN-523 in pancreatic cancer in-depth preclinical studies in this disease model were performed.

MiaPaCa-2 [1] = assay: Colony formation assay, MiaPaCa-2; type: cell-based; details: 0.1 μM; 24 h treatment
Description: (§2) A) QN523 inhibits colony formation in PDAC cell lines. […] Data points represent Mean±SD from three independent experiments.
(§3) The cytotoxicity of QN523 was further evaluated in three pancreatic cancer cell lines using colony formation assay. Using numbers and sizes of colonies as the experimental readout, this long-term assay estimates both anti-proliferative and cytotoxic effect.

MiaPaCa-2 [2] = assay: MTT assay, MiaPaCa-2
Experimental: Cells were treated with QN523 for 1, 4, 8, 24, 48, 72 h and left in culture in fresh media. MTT assay was performed 72 h after initiation of treatment. Data points represent Mean±SD from three independent experiments.
(§4) Experiments conducted during the course of developing embodiments for the present invention involved performance of a phenotypic screen of a library of 20,000 small-molecules representing five million compounds. […] Subsequently, a lead optimization campaign was performed to synthesize a series of close analogs. Initially, the 50 analogs were tested in three pancreatic cancer cell lines using MTT assay (Table 1).
(§5) For in vitro studies, compounds were dissolved in DMSO at 10 mM as stock solutions and stored at −20° C. For in vivo studies, QN523 was dissolved in a vehicle containing 5% DMSO, 35% propylene glycol and 60% saline, and administered at 100 uL through intraperitoneal injections.

[3] = test system: panel of 12 cancer cell lines; assay: MTT assay, panel of 12 cancer cell lines; type: cell-based; details: range over the panel; read-out: IC50 values across all 12 cell lines
Experimental: as §1

HCT116 p53+/+ = assay: MTT assay, HCT116 p53+/+; type: cell-based; details: Homo sapiens, HCT-116, MTT assay; colorectal cancer cell line
Experimental: as §1

Panc-1 = assay: MTT assay, Panc-1; type: cell-based; details: Homo sapiens
Experimental: as §4, §5

SNU475 = assay: MTT assay, SNU475; type: cell-based; details: Homo sapiens, SNU-475, HCC cell line
Experimental: as §1

[4] = test system: WIPI1, GABARAPL1 and LC3B; assay: Western blotting of autophagy related proteins in MiaPaCa-2; type: cell-based
Experimental: FIG. 12: QN523 induces protein expression of autophagy markers dose-dependently.
Significant induction of the protein was detected at concentrations as low as 0.25 μM.
(§6) In addition, primary antibodies for LC3B, survivin, cyclin D1, Stat3 and phosphorylated Stat3 (Y705) are from Cell Signaling Technology.

MiaPaCa-2 cells [5] = assay: DAVID analysis of Bru-seq gene lists; details: genes changed at least 2 fold
Experimental: Histogram represents statistical significance in regulation of the indicated theme.
The lists were also analyzed by Database for Annotation, Visualization and Integrated Discovery (DAVID), which identify enriched biological themes with particular focus on gene ontology terms, as well as functional-related gene groups (see, e.g., Huang da W, Sherman B T, Lempicki R A (2009) Nature protocols 4(1): 44-57; Huang da W, Sherman B T, Lempicki R A (2009) Nucleic acids research 37(1): 1-13). […] In addition, induction of apoptosis and disruption of cell cycle might be important cellular events contributing to cytotoxicity of QN523.
Top functional terms identified by DAVID are reported.

GRP78, CHOP, ATF3, GDF15 = assay: Western blotting of stress responsive proteins in MiaPaCa-2; type: cell-based; details: 72 h, western blotting
Experimental: FIG. 11: QN523 induces protein expression of stress markers dose-dependently.
This example describes the validation of biomarkers GDF15, ATF3, DDIT3, HSPA5, WIPI1, GABARAPL1 and MAP1LC3B in pancreatic cancer cell lines. To validate the findings from bioinformatics analysis basing on Bru-seq experiments, the proposed biomarkers were further tested in pancreatic cancer cell lines. […] However, the potency of Sulindac is much lower than that of QN523, with IC50 of 300 μM in MiaPaCa-2.
as §6

MiaPaCa-2 cells [6] = assay: Ingenuity Pathway Analysis (IPA) of Bru-seq gene lists; details: 1 μM, 24 h
Description: Top 20 canonical pathways regulated by QN523. Histogram represents percentage of genes regulated in the pathway; numbers on the histogram are total numbers of genes in the specific pathway. […] Orange line represents statistical significance in regulation of the indicated pathway.

HepG2 = assay: MTT assay, HepG2; type: cell-based; details: Homo sapiens, HCC cell line
Experimental: as §1

SNU387 = assay: MTT assay, SNU387; type: cell-based; details: Homo sapiens, SNU-387, HCC cell line
Experimental: as §1

Ovcar 8 = assay: MTT assay, Ovcar 8; type: cell-based; details: Homo sapiens
Experimental: as §1

BxPC-3 = assay: MTT assay, BxPC-3; type: cell-based; details: Homo sapiens
Experimental: as §4, §5

PDAC cell lines = assay: Colony formation assay, three pancreatic cancer cell lines; type: cell-based; details: 1 μM; all three cell lines; 24 h treatment
Description: as §2, §3

[7] = test system: three pancreatic cancer cell lines; assay: MTT assay, three pancreatic cancer cell lines; type: cell-based; details: read-out: Mark: IC50 lower than 1 μM in at least one cell line, Table 1
SNU449 = assay: MTT assay, SNU449; type: cell-based; details: Homo sapiens, SNU-449, HCC cell line
Experimental: as §1

SNU398 = assay: MTT assay, SNU398; type: cell-based; details: Homo sapiens, SNU-398, HCC cell line
Experimental: as §1

Jurkat = assay: MTT assay, Jurkat; type: cell-based; details: Homo sapiens, leukemia cell line
Experimental: as §1

O=C(Nc1cccc2cccnc12)c1cnccn1 [QN523, Pyrazine-2-carboxylic acid quinolin-8-ylamide]
IC50 (Hep3B): 210 nM | suppression of MiaPaCa-2 colonies (MiaPaCa-2 [1]): complete suppression of MiaPaCa-2 colonies | IC50 (MiaPaCa-2 [2]; Homo sapiens, MIA PaCa-2, read-out: IC50 Mia PaCa-2, MTT assay, PDAC cell line): 110 nM | IC50 (MiaPaCa-2 [2]; Homo sapiens, MIA PaCa-2, read-out: IC50 Values MiaPaCa-2, MTT assay, Mean ± SD, three independent experiments): 110 ± 30 nM | IC50 (MiaPaCa-2 [2]; read-out: IC50 Mia PaCa-2, MTT assay, PDAC cell line): ~100 nM | cytotoxicity versus treatment time (MiaPaCa-2 [2]; treated 1, 4, 8, 24, 48, 72 h, washed, MTT at 72 h): time dependent cytotoxicity effect | IC50 [3]: 100 to 5700 nM | IC50 (HCT116 p53+/+): ~100 nM | IC50 (Panc-1; PANC-1, read-out: IC50 Panc-1): 500 nM | IC50 (Panc-1; PANC-1, read-out: IC50 Values Panc-1): 500 ± 70 nM | IC50 (SNU475): 2670 nM | lowest concentration with significant induction of WIPI1 protein ([4]; 72 h): 0.25 µM | autophagy-related markers WIPI1, GABARAPL1 and LC3B ([4]; 72 h treatment, western blotting): Accumulation | biological themes downregulated (MiaPaCa-2 cells [5]): chromosomal proteins and cell cycle genes | biological themes upregulated (MiaPaCa-2 cells [5]): Apoptosis, (bZIP) transcription factors, ER related genes and stress responses | protein levels of stress responsive markers HSPA5, DDIT3, ATF3 and GDF15 (GRP78, CHOP, ATF3, GDF15): dose dependent upregulation | genes up-regulated in unfolded protein response, ER stress pathway and circadian rhythm signaling (MiaPaCa-2 cells [6]): about 25% | IC50 (HepG2): 500 nM | IC50 (SNU387): 5730 nM | IC50 (Ovcar 8): 300 nM | IC50 (BxPC-3; BXPC-3, read-out: IC50 BxPC-3): 3300 nM | IC50 (BxPC-3; BXPC-3, read-out: IC50 Values BxPC-3): 3300 ± 260 nM | inhibition of colony formation (PDAC cell lines): Complete inhibition of colony formation | IC50 [7]: < 1000 nM | IC50 (SNU449): 400 nM | IC50 (SNU398): 1900 nM | IC50 (Jurkat): ~100 nM
